Organism: Rattus norvegicus
Test: DrugMatrix - Regimen: Daily Repeat
Format: toxicity, organism-based, Sprague-Dawley
Design: regimen Daily Repeat, gender Male, age 6-8 weeks
Settings: in vivo, po, route oral GAVAGE, vehicle 100 % WATER; for ABSOLUTE BASOPHIL / ABSOLUTE EOSINOPHIL / ABSOLUTE LYMPHOCYTE / ABSOLUTE MONOCYTE / ABSOLUTE SEGMENTED NEUTROPHIL / BASOPHIL / EOSINOPHIL / ERYTHROCYTE COUNT / HEMATOCRIT / HEMOGLOBIN / LEUKOCYTE COUNT / LYMPHOCYTE / MEAN CORPUSCULAR HEMOGLOBIN / MEAN CORPUSCULAR HEMOGLOBIN CONCENTRATION / MEAN CORPUSCULAR VOLUME / MONOCYTE / NEUTROPHIL / NUCLEATED RED BLOOD CELLS / PLATELET COUNT: tissue Blood; for ALANINE AMINOTRANSFERASE / ALBUMIN / ALKALINE PHOSPHATASE / ASPARTATE AMINOTRANSFERASE / BLOOD UREA NITROGEN / CARBON DIOXIDE / CHLORIDE / CHOLESTEROL / CREATINE PHOSPHOKINASE / CREATININE / GLUCOSE / LACTATE DEHYDROGENASE / LIPASE / PHOSPHORUS / POTASSIUM / SODIUM / TOTAL BILIRUBIN / TOTAL PROTEIN / URIC ACID: tissue Plasma
[1] = 0 mg/kg, 72 h, dose level Control, time 3 day
[2] = 0 mg/kg, 120 h, dose level Control, time 5 day
[3] = 56 mg/kg, 72 h, dose level Low, time 3 day

For `CC[C@H]1OC(=O)[C@H](C)[C@@H](O[C@H]2C[C@@](C)(OC)[C@@H](O)[C@H](C)O2)[C@H](C)[C@@H](O[C@@H]2O[C@H](C)C[C@H](N(C)C)[C@H]2O)[C@](C)(OC)C[C@@H](C)C(=O)[C@H](C)[C@@H](O)[C@]1(C)O` [CLARITHROMYCIN], the “ABSOLUTE BASOPHIL” value [1] was 0 CELLS/uL, the “ABSOLUTE EOSINOPHIL” value [1] was 91.5 CELLS/uL and the “ABSOLUTE LYMPHOCYTE” value [1] was 14108.83 CELLS/uL. For the same compound, the “ABSOLUTE MONOCYTE” value [1] was 81 CELLS/uL, the “ABSOLUTE SEGMENTED NEUTROPHIL” value [1] was 818.67 CELLS/uL and the BASOPHIL [1] was 0%. The EOSINOPHIL [1] was 0.67%, the “ERYTHROCYTE COUNT” value [1] was 5.56 x10E6/uL and the HEMATOCRIT [1] was 34.5%. For the same compound, the HEMOGLOBIN [1] was 13.45 G/DL, the “LEUKOCYTE COUNT” value [1] was 15.1 x10E3/uL and the LYMPHOCYTE [1] was 93%. For the same compound, the “MEAN CORPUSCULAR HEMOGLOBIN” value [1] was 24.2 pg, the “MEAN CORPUSCULAR HEMOGLOBIN CONCENTRATION” value [1] was 38.98 G/DL and the “MEAN CORPUSCULAR VOLUME” value [1] was 62.07 fL. For the same compound, the MONOCYTE [1] was 0.5%, the NEUTROPHIL [1] was 5.83% and the “NUCLEATED RED BLOOD CELLS” value [1] was 0 /100WBC. For the same compound, the “PLATELET COUNT” value [1] was 1193.33 x10E3/uL, the “ALANINE AMINOTRANSFERASE” value [1] was 60.33 u/L and the ALBUMIN [1] was 4 G/DL. The “ALKALINE PHOSPHATASE” value [1] was 334.83 u/L, the “ASPARTATE AMINOTRANSFERASE” value [1] was 74.5 u/L and the “BLOOD UREA NITROGEN” value [1] was 13.5 mg/dL. The “CARBON DIOXIDE” value [1] was 30.33 mmol/L, the CHLORIDE [1] was 98.33 MEQ/L and the CHOLESTEROL [1] was 71.17 mg/dL. For the same compound, the “CREATINE PHOSPHOKINASE” value [1] was 212 u/L, the CREATININE [1] was 0.21 mg/dL and the GLUCOSE [1] was 173.17 mg/dL. For the same compound, the “LACTATE DEHYDROGENASE” value [1] was 101.5 u/L, the LIPASE [1] was 24.17 u/L and the PHOSPHORUS [1] was 10.87 mg/dL. For the same compound, the POTASSIUM [1] was 6.06 MEQ/L, the SODIUM [1] was 140.58 MEQ/L and the “TOTAL BILIRUBIN” value [1] was 0.17 mg/dL. For the same compound, the “TOTAL PROTEIN” value [1] was 5.9 G/DL, the “URIC ACID” value [1] was 1.23 mg/dL and the “ABSOLUTE BASOPHIL” value [2] was 0 CELLS/uL. The “ABSOLUTE EOSINOPHIL” value [2] was 34.5 CELLS/uL, the “ABSOLUTE LYMPHOCYTE” value [2] was 8181 CELLS/uL and the “ABSOLUTE MONOCYTE” value [2] was 82.67 CELLS/uL. For the same compound, the “ABSOLUTE SEGMENTED NEUTROPHIL” value [2] was 435.17 CELLS/uL, the BASOPHIL [2] was 0% and the EOSINOPHIL [2] was 0.5%. The “ERYTHROCYTE COUNT” value [2] was 5.31 x10E6/uL, the HEMATOCRIT [2] was 33.83% and the HEMOGLOBIN [2] was 13.37 G/DL. The “LEUKOCYTE COUNT” value [2] was 8.73 x10E3/uL, the LYMPHOCYTE [2] was 93.5% and the “MEAN CORPUSCULAR HEMOGLOBIN” value [2] was 25.2 pg. The “MEAN CORPUSCULAR HEMOGLOBIN CONCENTRATION” value [2] was 39.53 G/DL, the “MEAN CORPUSCULAR VOLUME” value [2] was 63.73 fL and the MONOCYTE [2] was 1%. The NEUTROPHIL [2] was 5%, the “NUCLEATED RED BLOOD CELLS” value [2] was 0 /100WBC and the “PLATELET COUNT” value [2] was 1057.33 x10E3/uL. For the same compound, the “ALANINE AMINOTRANSFERASE” value [2] was 54.33 u/L, the ALBUMIN [2] was 4.07 G/DL and the “ALKALINE PHOSPHATASE” value [2] was 308.67 u/L. The “ASPARTATE AMINOTRANSFERASE” value [2] was 83.17 u/L, the “BLOOD UREA NITROGEN” value [2] was 14 mg/dL and the “CARBON DIOXIDE” value [2] was 34 mmol/L. The CHLORIDE [2] was 98 MEQ/L, the CHOLESTEROL [2] was 71.33 mg/dL and the “CREATINE PHOSPHOKINASE” value [2] was 266.5 u/L. The CREATININE [2] was 0.27 mg/dL, the GLUCOSE [2] was 133 mg/dL and the “LACTATE DEHYDROGENASE” value [2] was 127 u/L. It also gave an LIPASE [2] of 11.67 u/L, a PHOSPHORUS [2] of 10.6 mg/dL and a POTASSIUM [2] of 6.17 MEQ/L. For the same compound, the SODIUM [2] was 142.68 MEQ/L, the “TOTAL BILIRUBIN” value [2] was 0.15 mg/dL and the “TOTAL PROTEIN” value [2] was 6.03 G/DL. The “URIC ACID” value [2] was 0.75 mg/dL, the “ABSOLUTE BASOPHIL” value [3] was 0 CELLS/uL and the “ABSOLUTE EOSINOPHIL” value [3] was 59.33 CELLS/uL. For the same compound, the “ABSOLUTE LYMPHOCYTE” value [3] was 13806.33 CELLS/uL, the “ABSOLUTE MONOCYTE” value [3] was 0 CELLS/uL and the “ABSOLUTE SEGMENTED NEUTROPHIL” value [3] was 1301 CELLS/uL. The BASOPHIL [3] was 0%, the EOSINOPHIL [3] was 0.33% and the “ERYTHROCYTE COUNT” value [3] was 5.56 x10E6/uL. The HEMATOCRIT [3] was 35.47%, the HEMOGLOBIN [3] was 13.53 G/DL and the “LEUKOCYTE COUNT” value [3] was 15.17 x10E3/uL. For the same compound, the LYMPHOCYTE [3] was 91.67%, the “MEAN CORPUSCULAR HEMOGLOBIN” value [3] was 24.37 pg and the “MEAN CORPUSCULAR HEMOGLOBIN CONCENTRATION” value [3] was 38.2 G/DL. The “MEAN CORPUSCULAR VOLUME” value [3] was 63.77 fL, the MONOCYTE [3] was 0% and the NEUTROPHIL [3] was 8%. The “NUCLEATED RED BLOOD CELLS” value [3] was 0 /100WBC, the “PLATELET COUNT” value [3] was 1156.33 x10E3/uL and the “ALANINE AMINOTRANSFERASE” value [3] was 46.33 u/L. For the same compound, the ALBUMIN [3] was 4.03 G/DL, the “ALKALINE PHOSPHATASE” value [3] was 259.67 u/L and the “ASPARTATE AMINOTRANSFERASE” value [3] was 70.67 u/L. The “BLOOD UREA NITROGEN” value [3] was 12.33 mg/dL, the “CARBON DIOXIDE” value [3] was 30.33 mmol/L and the CHLORIDE [3] was 99.67 MEQ/L. For the same compound, the CHOLESTEROL [3] was 68.33 mg/dL, the “CREATINE PHOSPHOKINASE” value [3] was 185.33 u/L and the CREATININE [3] was 0.19 mg/dL. For the same compound, the GLUCOSE [3] was 143.67 mg/dL, the “LACTATE DEHYDROGENASE” value [3] was 137.33 u/L and the LIPASE [3] was 10.67 u/L. It also gave a PHOSPHORUS [3] of 10.87 mg/dL, a POTASSIUM [3] of 6.51 MEQ/L and an SODIUM [3] of 141.97 MEQ/L. The “TOTAL BILIRUBIN” value [3] was 0.2 mg/dL, the “TOTAL PROTEIN” value [3] was 5.93 G/DL and the “URIC ACID” value [3] was 1.4 mg/dL.

Reference: ChEMBL document CHEMBL3885881, “DrugMatrix”
